Results: the supplement of paper PMC10307832

Legend:
Test in all cases: relative viability (nuclei count vs DMSO), 5 days (fraction); higher = more cells survive
Sorafenib + Trametinib = compound: CNC(=O)c1cc(Oc2ccc(NC(=O)Nc3ccc(Cl)c(C(F)(F)F)c3)cc2)ccn1 [Sorafenib] + CC(=O)Nc1cccc(-n2c(=O)n(C3CC3)c(=O)c3c(Nc4ccc(I)cc4F)n(C)c(=O)c(C)c32)c1 [Trametinib] (partner 0.02 µM)
Method in brief: (§1)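 Medians of duplicate plates are given as relative viability. That measure is the nuclei count in treated wells divided by the count in vehicle wells. Counts were taken on 4× images of lung cancer cell lines in 1536-well plates, 5 days after pin-tool dosing the day after seeding with one drug alone or a fixed anchor-drug dose plus five library-drug doses (not always all listed) in √10 steps.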

Sorafenib + Navitoclax = compound: CNC(=O)c1cc(Oc2ccc(NC(=O)Nc3ccc(Cl)c(C(F)(F)F)c3)cc2)ccn1 [Sorafenib] + CC1(C)CCC(c2ccc(Cl)cc2)=C(CN2CCN(c3ccc(C(=O)NS(=O)(=O)c4ccc(N[C@H](CCN5CCOCC5)CSc5ccccc5)c(S(=O)(=O)C(F)(F)F)c4)cc3)CC2)C1 [Navitoclax] (partner 0.5 µM)
Method in brief: as §1

Sorafenib + Luminespib = compound: CNC(=O)c1cc(Oc2ccc(NC(=O)Nc3ccc(Cl)c(C(F)(F)F)c3)cc2)ccn1 [Sorafenib] + CCNC(=O)c1noc(-c2cc(C(C)C)c(O)cc2O)c1-c1ccc(CN2CCOCC2)cc1 [Luminespib] (partner 0.01 µM)
Method in brief: as §1

Sorafenib + Pictilisib = compound: CNC(=O)c1cc(Oc2ccc(NC(=O)Nc3ccc(Cl)c(C(F)(F)F)c3)cc2)ccn1 [Sorafenib] + CS(=O)(=O)N1CCN(Cc2cc3nc(-c4cccc5[nH]ncc45)nc(N4CCOCC4)c3s2)CC1 [Pictilisib] (partner 1 µM)
Method in brief: as §1

Sorafenib + Crizotinib = compound: CNC(=O)c1cc(Oc2ccc(NC(=O)Nc3ccc(Cl)c(C(F)(F)F)c3)cc2)ccn1 [Sorafenib] + C[C@@H](Oc1cc(-c2cnn(C3CCNCC3)c2)cnc1N)c1c(Cl)ccc(F)c1Cl [Crizotinib] (partner 1 µM)
Method in brief: as §1

Cell Line	relative viability (Sorafenib + Trametinib; first compound 0.253 µM)	relative viability (Sorafenib + Trametinib; first compound 2.53 µM)	relative viability (Sorafenib + Trametinib; first compound 8 µM)	relative viability (Sorafenib + Navitoclax; first compound 0.08 µM)	relative viability (Sorafenib + Navitoclax; first compound 0.253 µM)	relative viability (Sorafenib + Navitoclax; first compound 2.53 µM)	relative viability (Sorafenib + Navitoclax; first compound 8 µM)	relative viability (Sorafenib + Luminespib; first compound 0.08 µM)	relative viability (Sorafenib + Luminespib; first compound 0.253 µM)	relative viability (Sorafenib + Luminespib; first compound 2.53 µM)	relative viability (Sorafenib + Luminespib; first compound 8 µM)	relative viability (Sorafenib + Pictilisib; first compound 0.08 µM)	relative viability (Sorafenib + Pictilisib; first compound 0.253 µM)	relative viability (Sorafenib + Pictilisib; first compound 2.53 µM)	relative viability (Sorafenib + Pictilisib; first compound 8 µM)	relative viability (Sorafenib + Crizotinib; first compound 0.08 µM)	relative viability (Sorafenib + Crizotinib; first compound 0.253 µM)	relative viability (Sorafenib + Crizotinib; first compound 2.53 µM)	relative viability (Sorafenib + Trametinib; first compound 0.08 µM)	relative viability (Sorafenib + Crizotinib; first compound 8 µM)
PC-3 [JPC-3]	0.712	0.773	0.718	0.883	0.775	0.806	0.877	0.67	0.687	0.717	0.637	0.813	0.659	0.752	0.679	0.978	0.957	0.985		
PC-14	0.694	0.567	0.158	1.02	0.949	0.888	0.955	0.138	0.138	0.19	0.138	0.748	0.542	0.625	0.344	0.935	1	0.967	0.883	0.533
RERF-LC-KJ		0.86	0.65	0.932	1.11	0.867	0.705	1.2	1.26	1.24	0.404	0.604	0.578	0.612	0.438	0.885	0.798	0.856	0.753	0.768
SK-LU-1	0.44	0.302	0.234	0.926		0.729	0.207	0.181	0.181	0.2	0.179	0.61	0.439	0.579	0.412	0.956		0.79	0.726	0.309
SK-MES-1	0.614	0.315	0.231	1.17	1.26	1.22		0.752	0.69	0.791	0.412	0.451	0.439	0.447	0.377	1.06	0.94	0.92	0.627	0.865
SW 1573	0.608	0.337	0.131	1.1	0.947	0.983	0.689	0.239	0.255	0.166	0.117	0.464	0.465	0.402	0.257	0.984	0.86	0.89	0.549	0.753
UMC-11	0.743	0.639	0.612	0.32		0.34	0.152	1.03	1.03	1	0.182	0.85	0.78	0.759	0.523	0.558	0.578	0.541	0.854	0.204
